Experiments:
[1] = system: cytotoxicity induced by β-oligomer; conditions: cited from earlier work
amyloid β = conditions: mouse model of the Alzheimer's disease; cited from earlier work
[2] = cited from earlier work
[3] = system: extracellular acetylcholine in the cerebral cortex; assay: Amount of extracellular acetylcholine in mouse brain by in vivo microdialysis (Test Example 1); set-up: species or system ddY mouse; conditions: for amount of extracellular acetylcholine in the cerebral cortex (ratio to basic released amount): oral 30 mg/kg, measured for 120 minutes after administration, compared with before administration, FIG. 1
Description: The compound A, B, and C were administered orally to the mouse and the effect on the amount of extracellular acetylcholine in the brain was examined. The brain microdyalysis method using the mouse is proposed as a test for evaluating cognitive dysfunction including Alzheimer type dementia. The brain microdyalysis method is a system that can monitor the variation of extracellular neurotransmitter release in real time at the local parts in the brain while the test animals are moving freely without anesthesia.
(§1) 7-weeks-old male ddY mice were purchased from Japan SLC, Inc. and subjected to the experiment after one week habituation period. The animals were reared in the rearing chamber provided with air conditioner (under the condition that the temperature was 22° C.±1° C., the relative humidity was 50±10%, and the irradiation time was 12 hours (8:00 to 20:00)). The feeding method was that the commercially available MF powdery feed (manufactured by Oriental Yeast Co., ltd.) and tap water were taken freely.
In the two days before the start of the experiment, the fixing operation of the guide cannula for inserting the dialysis probe in the mouse was conducted in advance. Under the deep anesthetized conditions, the guide cannula (depth 4 mm) (manufactured by Eicom Corp.,) was inserted in and fixed on cerebral cortex prefrontal area (which was 1.9 mm forward and 0.5 mm right side from the bregma and to which the depth from cranial surface was 0.8 mm). Buprenorphine (0.01 mg/kg manufactured by Sigma-Aldrich Japan) was administered to the mouse as analgesic after the operation. Each mouse was reared in the separate cage after the operation.
In the step of measuring extracellular acetylcholine in the brain, the dialysis probe (membrane length 3 mm) (manufactured by Eicom Corp.,) was inserted in the guide cannula and the Ringer's solution in the Japanese Pharmacopeia (containing NaCl (147.2 mM), KCl (4.0 mM), and CaCl2 (2.2 mM); manufactured by FUSO CHEMICAL CO., LTD.) was perfused at the flow velocity of 1 μL/min. The sample obtained by the perfusion was collected every 20 minutes and was immediately continuously automatically injected in the high-speed liquid chromatography/electrochemical detector (HPLC/ECD) system (manufactured by Eicom Corp., HTEC-500) together with the internal standard material (isopropylhomocholine, 250 fmol) and acetylcholine was measured under the condition described below.
• Column: Eicompak AC-GEL (2.0 mm; i.d.×150 mm) (manufactured by Eicom Corp.,) • Precolumn: PC-05-03 (3.0 mm; i.d.×40 mm) (manufactured by Eicom Corp.,) • Enzyme-immobilized column: AC-Enzympak (3.0 mm; i.d.) (manufactured by Eicom Corp.,) • Mobile Phase: 50 mM potassium hydrogen carbonate buffer containing 400 mg/L sodium decansulfonic acid and 134 μM EDTA (pH 8.3) • Flow Velocity: 150 μl/min. • Temperature of column: 33° C. • Applied voltage of ECD: +450 mV • Reference electrode: Ag/AgCl electrode • Work electrode: platinum electrode
The compound A prepared according to the procedure described in Manufacturing Example 1 was dissolved in 2.5% DMSO solution in advance to prepare for the test. […] The amount of the extracellular acetylcholine released was measured by the procedure described above in (a) Used animal and Rearing Procedure in real time for 120 minutes after the administration. The mouse in Vehicle group took only 2.5% DMSO solution orally in the same way and the amount of the extracellular acetylcholine was measured. […]

[4] = system: scopolamine-induced amnesia mouse; assay: Y-maze test, short-term working memory of scopolamine-induced amnesia mouse (Test Example 2); assay type: in vivo, ddY mouse; conditions: oral 30 mg/kg, scopolamine 1 mg/kg i.p.; FIG. 2(A),(B)
Description: The effect of inhibiting lowering of short-term memory was examined by orally or subcutaneously (intraperitoneally) administering the compound A to the mouse.
as §1
The compound A prepared according to the procedure described in Manufacturing Example 1 was dissolved in 2.5% DMSO solution in advance. There were 15 mice in each group, and the 30 mg/kg compound administration group and the 10 mg/kg compound administration group were established and orally administered. The mice of the control group and Vehicle group were orally administered with only 2.5% DMSO solution. In the same manner the compound B and the compound C were orally administered to 10 mice at a dose of 30 mg/kg respectively. Each mouse of the administration groups of the compound A to C and the vehicle group was intraperitoneally administered with scopolamine hydrobromide (manufactured by Sigma-Aldrich Japan S1875) (a dose of 1 mg/kg) which is muscarinic acetylcholine receptor antagonist 30 minutes after the administration. The mice of the control group which were not administered with scopolamine hydrobromide were intraperitoneally administered with (Japanese Pharmacopoeia) physiological saline solution (OTSUKA NORMAL SALINE 3311401A2026). At 30 minutes after the final administration, Y-maze test was conducted, and the working memory was evaluated. The test using the mice orally administered was separately conducted under the same condition as that described above for comparative evaluation of the intraperitoneal administration.
The Y-maze manufactured by Brain Science. idea Co., Ltd. was used for the test. The maze was the maze 3 courses of which were made into Y-letter shape having one selection point and arranged at interval of an angle of 120 degree. […] The mouse put on the gray course (made of polyvinyl chloride) was kept in the conditions and the mouse can see nothing but the upper part. Any one of the 3 courses of the maze was set as a starting point. After placing the mouse quietly at the starting point, the number of the times the mouse entered each course was record per 8 minutes, and as well as which course and in what order the mouse entered it. The ratio of the number of three consecutive entries into different courses (the number of the alternation behavior) to the total number of the selections was calculated as Spontaneous Alternation (%) according to the following formula and was used as an index of the short-term working memory.
From the results obtained, the mean (Mean) and the standard error (SEM) were calculated. The significant difference between the control group and the Vehicle group and between the compound A administration group and the Vehicle group was assessed by Turkey-Kramer's test. The level of significance was set to *P<0.05 and **p<0.01.

[5] = mouse, oral administration; cited from earlier work
acetylcholine esterase = acetylcholine esterase (Homo sapiens, UniProt P22303); assay: Inhibiting action of acetylcholine esterase (data not described); assay type: biochemical
[6] = system: cranial nerve cell SH-SY5Y; conditions: SH-SY5Y in vitro; cited from earlier work

acetylcholine esterase, sequence (P22303 32-614): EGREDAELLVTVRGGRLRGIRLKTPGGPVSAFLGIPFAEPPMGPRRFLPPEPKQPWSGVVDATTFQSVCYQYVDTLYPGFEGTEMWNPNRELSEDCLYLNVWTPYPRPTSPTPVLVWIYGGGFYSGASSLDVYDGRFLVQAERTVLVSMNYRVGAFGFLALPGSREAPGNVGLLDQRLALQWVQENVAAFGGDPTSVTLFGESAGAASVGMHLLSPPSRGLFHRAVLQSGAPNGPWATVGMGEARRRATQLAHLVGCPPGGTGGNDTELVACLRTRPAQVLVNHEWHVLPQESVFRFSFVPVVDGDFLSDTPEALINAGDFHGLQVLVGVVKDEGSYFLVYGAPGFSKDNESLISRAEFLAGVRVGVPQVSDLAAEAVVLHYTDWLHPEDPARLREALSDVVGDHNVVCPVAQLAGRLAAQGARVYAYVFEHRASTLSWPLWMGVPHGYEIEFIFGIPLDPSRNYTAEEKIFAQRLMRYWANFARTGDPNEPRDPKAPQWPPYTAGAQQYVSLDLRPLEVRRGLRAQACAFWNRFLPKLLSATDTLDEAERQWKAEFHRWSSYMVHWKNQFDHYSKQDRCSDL

## O=C1CCC(Cc2ccc(O)cc2)O1 (centres unmarked) [5-(4-monohydroxyphenyl)-γ-valerolactone]
[1]
  cytotoxicity induced by β-oligomer: reduces the cytotoxicity

## O=C(O[C@@H]1Cc2c(O)cc(O)cc2O[C@@H]1c1cc(O)c(O)c(O)c1)c1cc(O)c(O)c(O)c1 [EGCg, epigallocatechingallate]
Amyloid β
  generation of amyloid β: inhibit the generation of amyloid β
[2]
  amount absorbed into the body after ingestion (bioavailability): extremely low

## O=C1CC[C@H](Cc2ccc(O)c(O)c2)O1 [compound B, (R)-5-(3,4-dihydroxyphenyl)-γ-valerolactone, reference compound]
[3]
  amount of extracellular acetylcholine in the cerebral cortex (ratio to basic released amount): not significant change
[4]
  ameliorating the impairment of short-term working memory (Spontaneous Alternation): not confirmed at all

## O=C1CCC(Cc2cc(O)cc(O)c2)O1 (centres unmarked) [5-(3,5-dihydroxyphenyl)-γ-valerolactone]
[5]
  sulfate conjugate and glucuronic acid conjugate in the serum: detected
Acetylcholine esterase
  inhibiting action of acetylcholine esterase: do not provide inhibiting action
[3]; after the administration
  time until which the increased amount of free acetylcholine is maintained: ≤ 100 min
[6]
  nerve cell proliferating action: significant nerve cell proliferating action

## O=C1CC[C@H](Cc2cc(O)c(O)c(O)c2)O1 [compound C, (R)-5-(3,4,5-trihydroxyphenyl)-γ-valerolactone, reference compound]
[3]
  amount of extracellular acetylcholine in the cerebral cortex (ratio to basic released amount): not significant change
[4]
  ameliorating the impairment of short-term working memory (Spontaneous Alternation): not confirmed at all
